Source: patent US10947242B2, “[1,2,4]triazolo[1,5and#8208;A]pyrimidine compounds as PDE2 inhibitors” (Janssen Pharmaceutica NV, priority 2016, dated 2021)
Where two headings read alike, the source gives them in different places.

Assays:
Format in all cases: biochemical
[1] = target: T1, Human recombinant PDE3A (hPDE3A) (Homo sapiens, UniProt Q14432); test: In vitro assay PDE3A (SPA, 3H-cAMP hydrolysis); settings: for IC50: hPDE3B pIC50; for Emax: read-out: hPDE3B Emax, read-out: Emax;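 on Emax: the method names PDE3A and the table heading PDE3B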
T1 construct: purchased Scottish Biomedical; host or cells: Sf9 insect cells
T1 sequence (Q14432 whole entry): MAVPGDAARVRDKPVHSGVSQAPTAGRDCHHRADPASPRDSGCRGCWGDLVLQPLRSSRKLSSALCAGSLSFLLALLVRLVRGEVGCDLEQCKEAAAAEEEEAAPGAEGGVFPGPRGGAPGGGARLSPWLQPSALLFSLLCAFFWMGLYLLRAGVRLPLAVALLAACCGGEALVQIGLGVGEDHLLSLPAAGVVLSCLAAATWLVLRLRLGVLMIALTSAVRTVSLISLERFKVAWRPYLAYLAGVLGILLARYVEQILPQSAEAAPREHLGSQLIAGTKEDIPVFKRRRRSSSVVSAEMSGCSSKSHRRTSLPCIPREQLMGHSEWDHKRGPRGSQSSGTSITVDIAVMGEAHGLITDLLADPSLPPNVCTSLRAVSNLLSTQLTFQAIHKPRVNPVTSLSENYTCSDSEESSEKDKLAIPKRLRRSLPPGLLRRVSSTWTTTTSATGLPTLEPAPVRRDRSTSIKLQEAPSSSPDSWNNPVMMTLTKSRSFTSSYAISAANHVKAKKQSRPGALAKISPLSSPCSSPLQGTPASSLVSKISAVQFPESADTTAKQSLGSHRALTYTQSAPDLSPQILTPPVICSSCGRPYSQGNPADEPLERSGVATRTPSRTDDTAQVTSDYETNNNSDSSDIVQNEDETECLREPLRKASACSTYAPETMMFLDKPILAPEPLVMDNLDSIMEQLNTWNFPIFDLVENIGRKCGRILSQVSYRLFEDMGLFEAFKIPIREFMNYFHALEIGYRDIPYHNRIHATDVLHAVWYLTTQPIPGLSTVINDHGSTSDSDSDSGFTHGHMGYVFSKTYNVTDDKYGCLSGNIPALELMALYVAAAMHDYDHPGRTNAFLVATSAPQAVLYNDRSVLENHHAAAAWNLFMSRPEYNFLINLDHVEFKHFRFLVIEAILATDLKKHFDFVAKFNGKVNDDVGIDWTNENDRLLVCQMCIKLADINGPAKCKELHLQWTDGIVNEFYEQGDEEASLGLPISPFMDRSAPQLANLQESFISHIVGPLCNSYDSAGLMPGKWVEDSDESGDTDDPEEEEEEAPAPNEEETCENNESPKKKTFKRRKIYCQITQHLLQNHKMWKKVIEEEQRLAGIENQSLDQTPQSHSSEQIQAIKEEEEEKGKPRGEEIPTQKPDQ
In short: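 Human PDE3A, cloned from brain, as partially purified Sf9 lysate. Substrate 0.4 μM cAMP plus [3H]-cAMP (2.4 μCi/ml final) in 50 mM Tris pH 7.8, 8.3 mM MgCl2, 1.7 mM EGTA, 60 min at room temperature, 1% DMSO final. Hydrolysis read by SPA scintillation counting against no-enzyme blanks and DMSO controls.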

[2] = target: T2, Human recombinant PDE10A (hPDE10A) (Homo sapiens, UniProt Q9Y233); test: In vitro assay PDE10A, human clone (SPA, 3H-cAMP hydrolysis)
T2 construct: His tag (inferred from metal chelate purification); made in house; host or cells: Sf9 insect cells (baculovirus)
T2 sequence (Q9Y233 267-1055): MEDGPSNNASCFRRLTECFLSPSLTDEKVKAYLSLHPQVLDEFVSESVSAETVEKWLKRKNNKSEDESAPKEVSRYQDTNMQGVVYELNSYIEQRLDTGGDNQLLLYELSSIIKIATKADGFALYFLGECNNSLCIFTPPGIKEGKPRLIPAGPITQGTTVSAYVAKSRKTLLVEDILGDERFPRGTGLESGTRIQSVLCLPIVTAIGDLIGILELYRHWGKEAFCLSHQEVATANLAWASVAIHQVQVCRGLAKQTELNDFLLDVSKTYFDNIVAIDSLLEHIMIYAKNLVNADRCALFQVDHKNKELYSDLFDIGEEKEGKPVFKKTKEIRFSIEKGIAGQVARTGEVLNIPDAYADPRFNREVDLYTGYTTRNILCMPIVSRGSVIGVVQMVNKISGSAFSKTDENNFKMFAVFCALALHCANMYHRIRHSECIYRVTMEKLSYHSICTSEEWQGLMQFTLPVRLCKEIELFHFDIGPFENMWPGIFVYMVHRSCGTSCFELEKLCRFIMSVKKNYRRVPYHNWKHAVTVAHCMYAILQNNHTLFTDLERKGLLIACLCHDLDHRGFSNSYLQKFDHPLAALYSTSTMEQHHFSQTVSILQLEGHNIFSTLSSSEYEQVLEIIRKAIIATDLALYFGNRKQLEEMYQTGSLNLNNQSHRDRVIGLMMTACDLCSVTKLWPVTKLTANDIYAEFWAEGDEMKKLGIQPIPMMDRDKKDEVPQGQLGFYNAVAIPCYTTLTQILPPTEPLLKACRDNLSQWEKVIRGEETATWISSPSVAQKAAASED
In short: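 Human recombinant PDE10A was expressed in Sf9 cells via baculovirus and incubated with compound in 50 mM Tris pH 7.8, 8.3 mM MgCl2, 1.7 mM EGTA. Substrate was 60 nM cAMP plus 0.008 μCi 3H-cAMP for 60 min at room temperature, read by SPA scintillation counting. Controls used 1% DMSO, and blanks omitted enzyme.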

[3] = target: T3, Human recombinant PDE2A (hPDE2A) (Homo sapiens, UniProt O00408); test: In vitro assay PDE2A (SPA, 3H-cGMP hydrolysis); settings: for Emax: read-out: hPDE2A Emax
T3 construct: His tag (inferred from metal chelate purification); made in house; host or cells: Sf9 insect cells (baculovirus)
T3 sequence (O00408 whole entry): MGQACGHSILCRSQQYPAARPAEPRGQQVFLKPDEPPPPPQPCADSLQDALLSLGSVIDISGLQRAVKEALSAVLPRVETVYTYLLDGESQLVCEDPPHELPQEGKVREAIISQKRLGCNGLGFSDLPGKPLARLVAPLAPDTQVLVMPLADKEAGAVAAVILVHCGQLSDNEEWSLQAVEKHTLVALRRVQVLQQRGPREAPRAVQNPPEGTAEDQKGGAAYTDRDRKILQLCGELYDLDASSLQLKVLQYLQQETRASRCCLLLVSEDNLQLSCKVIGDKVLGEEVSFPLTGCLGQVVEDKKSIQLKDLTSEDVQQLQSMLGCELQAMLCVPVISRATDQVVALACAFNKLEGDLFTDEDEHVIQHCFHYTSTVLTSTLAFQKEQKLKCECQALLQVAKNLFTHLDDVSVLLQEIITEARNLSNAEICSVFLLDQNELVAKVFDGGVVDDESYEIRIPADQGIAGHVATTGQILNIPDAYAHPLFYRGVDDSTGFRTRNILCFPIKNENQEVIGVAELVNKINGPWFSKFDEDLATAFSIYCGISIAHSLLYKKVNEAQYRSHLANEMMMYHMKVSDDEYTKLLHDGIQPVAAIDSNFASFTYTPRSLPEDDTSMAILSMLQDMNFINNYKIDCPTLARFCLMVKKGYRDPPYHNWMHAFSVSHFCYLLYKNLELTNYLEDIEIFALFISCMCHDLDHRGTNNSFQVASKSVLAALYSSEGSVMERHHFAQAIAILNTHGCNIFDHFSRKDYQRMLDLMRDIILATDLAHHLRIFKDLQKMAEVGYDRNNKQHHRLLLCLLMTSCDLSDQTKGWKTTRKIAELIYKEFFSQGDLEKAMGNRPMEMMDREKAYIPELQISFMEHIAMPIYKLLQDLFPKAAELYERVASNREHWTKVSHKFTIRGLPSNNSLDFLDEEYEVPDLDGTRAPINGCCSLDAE

[4] = human clone (h), default, read-out: hPDE10A2 Emax
[5] = human clone (h), default, read-out: hPDE10A2 pIC50 (converted)
[6] = read-out: hPDE2A pIC50 (converted)
[7] = human clone by default (no (r) mark), read-out: hPDE10A2 or rPDE10A2 Emax
[8] = human clone by default (no (r) mark), read-out: hPDE10A2 or rPDE10A2 pIC50 (converted)
[9] = human recombinant PDE2A, 10 μM cGMP substrate, read-out: hPDE2A pIC50 (converted)

Row | Compound | IC50 ([1]; read-out: pIC50 (converted)) [µM] | Emax [1] [%] | Emax [2, 4] [%] | IC50 [2, 5] [µM] | Emax [3] [%] | IC50 [3, 6] [µM] | Emax [2, 7] [%] | IC50 [2, 8] [µM] | IC50 [3, 9] [µM] | Emax ([3]; human recombinant PDE2A) [%] | IC50 [1] [µM] | IC50 ([2]; hPDE10A2 or rPDE10A2 pIC50, human clone by default (no (r) mark)) [µM] | IC50 ([3]; hPDE2A pIC50) [µM]
1 | Cc1cc(C(=O)N2[C@H]3CC[C@@H]2[C@H](c2cc(C(F)F)nc4ncnn24)CC3)c(F)cn1 [Compound 62] | > 10 | 8 | 36 | > 10 | 77 | 3.02 | – | – | – | – | – | – | –
2 | CCCOc1cccnc1C(=O)N1CC[C@@H](C)[C@H](c2cc(C(F)F)nc3ncnn23)C1 [Compound 246] | > 10 | 25 | 44 | > 10 | 98 | 0.126 | 44 | > 10 | – | – | – | – | –
3 | O=C(c1ccc(F)c(OC(F)F)c1)N1[C@H]2CC[C@H](c3cc(C(F)F)nc4ncnn34)[C@@H]1CC2 [Compound 345] | 8.32 | 48 | – | – | 99 | 0.0759 | 72 | 3.72 | – | – | – | – | –
4 | C[C@@H]1CCN(C(=O)c2ccc(O)nn2)C[C@H]1c1cc(C(F)F)nc2ncnn12 [Compound 236] | > 10 | 18 | 58 | 7.76 | 100 | 0.209 | 58 | 7.76 | 0.209 | 100 | – | – | –
5 | C[C@@H]1CCN(C(=O)c2cccc3ncoc23)C[C@H]1c1cc(C(F)F)nc2ncnn12 [Compound 176] | 8.71 | 56 | 88 | 0.891 | 100 | 0.00912 | – | – | 0.00912 | 100 | – | – | –
6 | C[C@@H]1CCN(C(=O)c2ccncc2C(F)(F)F)C[C@H]1c1cc(C(F)F)nc2ncnn12 [Compound 239] | > 10 | 16 | 43 | > 10 | 96 | 0.191 | 43 | > 10 | 0.191 | 96 | – | – | –
7 | Cc1ccc2cc(C(=O)N3[C@H]4CC[C@H](c5cc(C(F)F)nc6ncnn56)[C@@H]3CC4)c(C)nc2c1 [Compound 298] | > 10 | 25 | – | – | 99 | 0.0186 | 47 | > 10 | – | – | – | – | –
8 | C[C@@H]1CCN(C(=O)c2ccncc2F)C[C@H]1c1cc(C(F)F)nc2ncnn12 [Compound 155] | > 10 | 37 | 72 | 2.95 | 98 | 0.0537 | – | – | 0.0537 | 98 | – | – | –
9 | Cc1nc2cc(C(=O)N3[C@H]4CC[C@H](c5cc(C(F)F)nc6ncnn56)[C@@H]3CC4)ccc2o1 [Compound 306] | – | 71 | – | – | 100 | – | 74 | – | – | – | 4.47 | 3.63 | 0.0447
10 | O=C(c1ccc2sccc2c1)N1[C@H]2CC[C@H](c3cc(C(F)F)nc4ncnn34)[C@@H]1CC2 [Compound 372] | 1.35 | 90 | – | – | 100 | 0.00102 | 96 | 0.251 | – | – | – | – | –
11 | C[C@@H]1CCN(C(=O)c2ncccc2N)C[C@H]1c1cc(C(F)F)nc2ncnn12 [Compound 233] | > 10 | 10 | 26 | > 10 | 94 | 0.575 | 26 | > 10 | 0.575 | 94 | – | – | –
12 | CCCC[C@@H]1CCN(C(=O)c2cc(C)nc(C)c2)C[C@H]1c1cc(C(F)F)nc2ncnn12 (single isomer, unassigned) [Compound 45] | > 10 | 1 | 24 | > 10 | 37 | > 10 | – | – | > 10 | 37 | – | – | –
